Assay results taken from US9090615B2, “Adamantyl derivatives as cannabinoid receptor 2 agonists” (Hoffmann-La Roche Inc., priority 2012, dated 2015).
Like-named read-outs stand apart in the source and are kept apart here.

Experiments:
[1] = molecular target: T1, human CB2 receptors (Homo sapiens, UniProt P34972); assay: functional cAMP assay, CHO cells expressing human CB2; assay type: cell-based
T1 construct: expressed in transfected cells; host or cells: CHO cells
Method: The growth medium was exchanged with Krebs Ringer Bicarbonate buffer with 1 mM IBMX and incubated at 30° C. for 30 min. Compounds were added to a final assay volume of 100 μl and incubated for 30 min at 30° C. […] The time-resolved energy transfer is measured by a TRF reader (Evotec Technologies GmbH), equipped with a ND:YAG laser as excitation source. The plate is measured twice with the excitation at 355 nm and at the emission with a delay of 100 ns and a gate of 100 ns, total exposure time 10 s at 730 (bandwidth 30 nm) or 645 nm (bandwidth 75 nm), respectively.
EC50 values were determined using Activity Base analysis (ID Business Solution, Limited).

[2] = molecular target: T2, human CB1 receptors (Homo sapiens, UniProt P21554); assay: functional cAMP assay, CHO cells expressing human CB1; assay type: cell-based
T2 construct: expressed in transfected cells; host or cells: CHO cells
Method: CHO cells expressing human CB1 or CB2 receptors are seeded 17-24 hours prior to the experiment 50.000 cells per well in a black 96 well plate with flat clear bottom (Corning Costar #3904) in DMEM (Invitrogen No. 31331), 1×HT supplement, with 10% fetal calf serum and incubated at 5% CO2 and 37° C. in a humidified incubator. The growth medium was exchanged with Krebs Ringer Bicarbonate buffer with 1 mM IBMX and incubated at 30° C. for 30 min. Compounds were added to a final assay volume of 100 μl and incubated for 30 min at 30° C. Using the cAMP-Nano-TRF detection kit the assay (Roche Diagnostics) was stopped by the addition of 50 μl lysis reagent (Tris, NaCl, 1.5% Triton X100, 2.5% NP40, 10% NaN3) and 50 μl detection solutions (20 μM mAb Alexa700-cAMP 1:1, and 48 μM Ruthenium-2-AHA-cAMP) and shaken for 2 h at room temperature. The time-resolved energy transfer is measured by a TRF reader (Evotec Technologies GmbH), equipped with a ND:YAG laser as excitation source. The plate is measured twice with the excitation at 355 nm and at the emission with a delay of 100 ns and a gate of 100 ns, total exposure time 10 s at 730 (bandwidth 30 nm) or 645 nm (bandwidth 75 nm), respectively. The FRET signal is calculated as follows: FRET=T730-Alexa730-P(T645-B645) with P=Ru730-B730/Ru645-B645, where T730 is the test well measured at 730 nM, T645 is the test well measured at 645 nm, B730 and B645 are the buffer controls at 730 nm and 645 nm, respectively. cAMP content is determined from the function of a standard curve spanning from 10 μM to 0.1 nM cAMP.
EC50 values were determined using Activity Base analysis (ID Business Solution, Limited). The EC50 values for a wide range of cannabinoid agonists generated from this assay were in agreement with the values published in the scientific literature.

[3] = CHO cells expressing human CB2, read-out: Ec50:CB2 - hu cAMP
[4] = CHO cells expressing human CB1, read-out: Ec50:CB1 - hu cAMP

T1 sequence (P34972 whole entry): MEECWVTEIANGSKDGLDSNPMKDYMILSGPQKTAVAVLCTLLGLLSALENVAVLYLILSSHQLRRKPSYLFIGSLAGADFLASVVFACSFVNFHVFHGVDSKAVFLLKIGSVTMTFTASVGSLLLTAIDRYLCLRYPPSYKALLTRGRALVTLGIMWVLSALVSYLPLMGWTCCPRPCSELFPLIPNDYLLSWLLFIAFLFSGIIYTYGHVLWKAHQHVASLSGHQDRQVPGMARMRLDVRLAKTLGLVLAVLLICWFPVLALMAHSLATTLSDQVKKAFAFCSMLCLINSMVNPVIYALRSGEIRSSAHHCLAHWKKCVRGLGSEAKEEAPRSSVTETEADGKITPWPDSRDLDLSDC
T2 sequence (P21554 whole entry): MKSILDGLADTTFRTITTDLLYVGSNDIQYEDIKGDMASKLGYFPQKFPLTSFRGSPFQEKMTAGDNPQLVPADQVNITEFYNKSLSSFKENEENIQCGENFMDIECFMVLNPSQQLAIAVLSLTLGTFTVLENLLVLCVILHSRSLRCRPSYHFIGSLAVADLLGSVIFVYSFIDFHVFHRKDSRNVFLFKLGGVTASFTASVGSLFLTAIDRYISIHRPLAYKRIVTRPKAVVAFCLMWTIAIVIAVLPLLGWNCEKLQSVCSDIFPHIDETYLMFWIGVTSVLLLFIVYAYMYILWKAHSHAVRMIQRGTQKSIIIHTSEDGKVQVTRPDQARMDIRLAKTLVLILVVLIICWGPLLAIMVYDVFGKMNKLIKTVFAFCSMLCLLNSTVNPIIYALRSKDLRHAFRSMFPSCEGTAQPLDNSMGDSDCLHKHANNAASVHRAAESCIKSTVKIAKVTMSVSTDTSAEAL

Row | EC50 [1, 3] | EC50 [2, 4] | SMILES | EC50 [1] | EC50 [2]
1 |  |  | CCCCOC1CCN(C(=O)C23CC4CC(CC(C4)C2)C3)c2ccccc21 (stereo not drawn) [Example 34, Adamantan-1-yl-(4-butoxy-3,4-dihydro-2H-quinolin-1-yl)-methanone] | 7.2 nM | > 10000 nM
2 |  |  | O=C(C1[C@H]2C[C@@H]3C[C@@H](C[C@H]1C3)C2)N1CCc2ccccc21 (stereo partly drawn) [Example 37, Adamantan-2-yl-(2,3-dihydro-indol-1-yl)-methanone] | 6.7 nM | > 10000 nM
3 | 2.4 nM | > 10000 nM | O=C(NC12CC3CC(CC(C3)C1)C2)N1CCc2ccccc21 [Example 38, 2,3-Dihydro-indole-1-carboxylic acid adamantan-1-ylamide] |  | 
4 | 17.6 nM | > 10000 nM | O=C(N1CCc2cc(F)c(F)cc21)C12CC3CC(CC(C3)C1)C2 [Example 39, Adamantan-1-yl-(5,6-difluoro-2,3-dihydro-indol-1-yl)-methanone] |  | 
5 | 594 nM | > 10000 nM | O=C1C2CC3CC1CC(C(=O)N1CCc4ccccc41)(C3)C2 [Example 40, 5-(2,3-Dihydro-indole-1-carbonyl)-adamantan-2-one] |  | 
6 |  |  | O=C(N1Cc2cc(Cl)c(N3CCOCC3)cc2C1)C12CC3CC(CC(C3)C1)C2 [Example 43, Adamantan-1-yl-(5-chloro-6-morpholin-4-yl-1,3-dihydro-isoindol-2-yl)-methanone] | 82.2 nM | > 10000 nM
7 | 58.9 nM | > 10000 nM | O=C(N1Cc2cccc(F)c2C1)C12CC3CC(CC(C3)C1)C2 [Example 44, Adamantan-1-yl-(4-fluoro-1,3-dihydro-isoindol-2-yl)-methanone] |  | 
8 | 41.7 nM | > 10000 nM | O=C(N1Cc2ccc(F)cc2C1)C12CC3CC(CC(C3)C1)C2 [Example 45, Adamantan-1-yl-(5-fluoro-1,3-dihydro-isoindol-2-yl)-methanone] |  | 

Row | SMILES | EC50 [1, 3] | EC50 [2, 4] | EC50 [1] | EC50 [2]
9 | CC(C)OC1CCN(C(=O)C23CC4CC(CC(C4)C2)C3)c2ccccc21 (stereo not drawn) [Example 35, Adamantan-1-yl-(4-isopropoxy-3,4-dihydro-2H-quinolin-1-yl)-methanone] | 122 nM | > 10000 nM |  | 
